Test results as given in US8349899B1 (Arrowhead Center, Inc., priority 2008, dated 2013).
Where two headings read alike, the source gives them in different places.

Key:
[1] = tested on: HeLa cervical adenocarcinoma cells; test: bipolar spindle formation in HeLa cells; assay type: cell-based, human
Description: Biochemical- and cell-based assays were used to evaluate the inhibitory activities of the STLC analogs. Using a commercially available assay from Cytoskeleton, Inc, analogs were assayed for their ability to block the microtubule-activated ATPase activity of recombinant human EG5 motor domain. In parallel, HeLa cells were treated for four hours with a range of concentrations, and then fixed, stained for microtubules, and mitotic cells were scored for spindle bipolarity.

[2] = tested on: NCI60 tumor panel; test: NCI60 tumor panel growth inhibition, whole panel; assay type: cell-based
[3] = tested on: CCRF-CEM; test: NCI60 growth inhibition, Leukemia CCRF-CEM; assay type: cell-based; settings: Homo sapiens
From the text: (§1) MSTCO was screened against the NCI60 tumor panel. Cell lines shown above represent lines common to all three screens, and growth inhibition is expressed as the concentration of drug (μM) that achieved 50% growth inhibition.

[4] = tested on: HL-60(TB); test: cells; assay type: cell-based; settings: Homo sapiens; Leukemia HL-60(TB)
[5] = tested on: K-562; test: NCI60 growth inhibition, Leukemia K-562; assay type: cell-based; settings: Homo sapiens, K562
From the text: as §1

[6] = tested on: MOLT-4; test: NCI60 growth inhibition, Leukemia MOLT-4; assay type: cell-based; settings: Homo sapiens
From the text: as §1

[7] = tested on: RPMI-8226; test: NCI60 growth inhibition, Leukemia RPMI-8226; assay type: cell-based; settings: Homo sapiens
From the text: as §1

[8] = tested on: SR; test: NCI60 growth inhibition, Leukemia SR; assay type: cell-based; settings: Homo sapiens
From the text: as §1

[9] = tested on: A549/ATCC; test: NCI60 growth inhibition, Non-Small Cell Lung A549/ATCC; assay type: cell-based; settings: Homo sapiens
From the text: as §1

[10] = tested on: EKVX; test: NCI60 growth inhibition, Non-Small Cell Lung EKVX; assay type: cell-based; settings: Homo sapiens
From the text: as §1

[11] = tested on: HOP-62; test: NCI60 growth inhibition, Non-Small Cell Lung HOP-62; assay type: cell-based; settings: Homo sapiens
From the text: as §1

[12] = tested on: NCI-H226; test: NCI60 growth inhibition, Non-Small Cell Lung NCI-H226; assay type: cell-based; settings: Homo sapiens
From the text: as §1

[13] = tested on: NCI-H23; test: NCI60 growth inhibition, Non-Small Cell Lung NCI-H23; assay type: cell-based; settings: Homo sapiens
From the text: as §1

[14] = tested on: NCI-H322M; test: NCI60 growth inhibition, Non-Small Cell Lung NCI-H322M; assay type: cell-based; settings: Homo sapiens
From the text: as §1

[15] = tested on: NCI-H522; test: NCI60 growth inhibition, Non-Small Cell Lung NCI-H522; assay type: cell-based; settings: Homo sapiens
From the text: as §1

[16] = tested on: COLO 205; test: NCI60 growth inhibition, Colon COLO 205; assay type: cell-based; settings: Homo sapiens
From the text: as §1

[17] = tested on: HCC-2998; test: NCI60 growth inhibition, Colon HCC-2998; assay type: cell-based; settings: Homo sapiens
From the text: as §1

[18] = tested on: HCT-116; test: NCI60 growth inhibition, Colon HCT-116; assay type: cell-based; settings: Homo sapiens
From the text: as §1

[19] = tested on: HCT-15; test: NCI60 growth inhibition, Colon HCT-15; assay type: cell-based; settings: Homo sapiens
From the text: as §1

[20] = tested on: HT29; test: NCI60 growth inhibition, Colon HT29; assay type: cell-based; settings: Homo sapiens, HT-29
From the text: as §1

[21] = tested on: KM12; test: NCI60 growth inhibition, Colon KM12; assay type: cell-based; settings: Homo sapiens
From the text: as §1

[22] = tested on: SW-620; test: NCI60 growth inhibition, Colon SW-620; assay type: cell-based; settings: Homo sapiens
From the text: as §1

[23] = tested on: SF-268; test: NCI60 growth inhibition, Central Nervous System SF-268; assay type: cell-based; settings: Homo sapiens
From the text: as §1

[24] = tested on: SF-295; test: NCI60 growth inhibition, Central Nervous System SF-295; assay type: cell-based; settings: Homo sapiens
From the text: as §1

[25] = tested on: SF-539; test: NCI60 growth inhibition, Central Nervous System SF-539; assay type: cell-based; settings: Homo sapiens
From the text: as §1

[26] = tested on: SNB-19; test: NCI60 growth inhibition, Central Nervous System SNB-19; assay type: cell-based; settings: Homo sapiens
From the text: as §1

[27] = tested on: SNB-75; test: NCI60 growth inhibition, Central Nervous System SNB-75; assay type: cell-based; settings: Homo sapiens
From the text: as §1

[28] = tested on: U251; test: NCI60 growth inhibition, Central Nervous System U251; assay type: cell-based; settings: Homo sapiens, U-251
From the text: as §1

[29] = tested on: LOX IMVI; test: NCI60 growth inhibition, Melanoma LOX IMVI; assay type: cell-based; settings: Homo sapiens
From the text: as §1

[30] = tested on: MALME-3M; test: NCI60 growth inhibition, Melanoma MALME-3M; assay type: cell-based; settings: Homo sapiens
From the text: as §1

[31] = tested on: M14; test: NCI60 growth inhibition, Melanoma M14; assay type: cell-based
From the text: as §1

[32] = tested on: SK-MEL-2; test: NCI60 growth inhibition, Melanoma SK-MEL-2; assay type: cell-based; settings: Homo sapiens
From the text: as §1

[33] = tested on: SK-MEL-28; test: NCI60 growth inhibition, Melanoma SK-MEL-28; assay type: cell-based; settings: Homo sapiens
From the text: as §1

[34] = tested on: SK-MEL-5; test: NCI60 growth inhibition, Melanoma SK-MEL-5; assay type: cell-based; settings: Homo sapiens
From the text: as §1

[35] = tested on: UACC-257; test: NCI60 growth inhibition, Melanoma UACC-257; assay type: cell-based; settings: Homo sapiens
From the text: as §1

[36] = tested on: UACC-62; test: NCI60 growth inhibition, Melanoma UACC-62; assay type: cell-based; settings: Homo sapiens
From the text: as §1

[37] = tested on: IGROV1; test: NCI60 growth inhibition, Ovarian IGROV1; assay type: cell-based; settings: Homo sapiens, IGROV-1
From the text: as §1

[38] = tested on: OVCAR-3; test: NCI60 growth inhibition, Ovarian OVCAR-3; assay type: cell-based; settings: Homo sapiens
From the text: as §1

[39] = tested on: OVCAR-4; test: NCI60 growth inhibition, Ovarian OVCAR-4; assay type: cell-based; settings: Homo sapiens
From the text: as §1

[40] = tested on: OVCAR-5; test: NCI60 growth inhibition, Ovarian OVCAR-5; assay type: cell-based; settings: Homo sapiens
From the text: as §1

[41] = tested on: OVCAR-8; test: NCI60 growth inhibition, Ovarian OVCAR-8; assay type: cell-based; settings: Homo sapiens
From the text: as §1

[42] = tested on: SK-OV-3; test: NCI60 growth inhibition, Ovarian SK-OV-3; assay type: cell-based; settings: Homo sapiens
From the text: as §1

[43] = tested on: 786-0; test: NCI60 growth inhibition, Renal 786-0; assay type: cell-based; settings: Homo sapiens
From the text: as §1

[44] = tested on: ACHN; test: NCI60 growth inhibition, Renal ACHN; assay type: cell-based; settings: Homo sapiens
From the text: as §1

[45] = tested on: CAKI-1; test: NCI60 growth inhibition, Renal CAKI-1; assay type: cell-based; settings: Homo sapiens
From the text: as §1

[46] = tested on: SN12C; test: NCI60 growth inhibition, Renal SN12C; assay type: cell-based; settings: Homo sapiens
From the text: as §1

[47] = tested on: TK-10; test: NCI60 growth inhibition, Renal TK-10; assay type: cell-based; settings: Homo sapiens
From the text: as §1

[48] = tested on: UO-31; test: NCI60 growth inhibition, Renal UO-31; assay type: cell-based; settings: Homo sapiens
From the text: as §1

Which results are given for `COc1ccc(C(SC[C@H](N)CO)(c2ccccc2)c2ccccc2)cc1` [Compound 1.0, 2-amino-3-[(4-methoxy-phenyl)-diphenyl-methylsulfanyl]-propan-1-ol]?
inhibitory activity in the cell-based assay ([1]; HeLa bipolar spindle formation): best performing analog; IC50 ([1]; Homo sapiens, HeLa, 4 h, read-out: Bipolar spindle formation IC50): 180 nM; anti-proliferative activity, initial single-dose screen ([2]; 60 cancer cell lines, single dose 10 μM): promising activity; average increase in activity over Monastrol ([2]; GI50, average over cell lines): 143 fold; average increase in activity over STLC ([2]; GI50, average over cell lines): 35 fold; GI50 ([2]; read-out: average GI50): 360 nM; GI50 ([2]; read-out: highest GI50 of the range over the panel): 3000 nM; GI50 ([2]; read-out: lowest GI50 of the range over the panel): 20 nM; GI50 [3]: 100 nM; GI50 [4]: 190 nM; GI50 [5]: 60 nM; GI50 [6]: 280 nM; GI50 [7]: 30 nM; GI50 [8]: 10 nM; GI50 [9]: 330 nM; GI50 [10]: 510 nM; GI50 [11]: 510 nM; GI50 [12]: 2750 nM; GI50 [13]: 260 nM; GI50 [14]: 110 nM; GI50 [15]: 220 nM; GI50 [16]: 80 nM; GI50 [17]: 50 nM; GI50 [18]: 30 nM; GI50 [19]: 210 nM; GI50 [20]: 340 nM; GI50 [21]: 220 nM; GI50 [22]: 70 nM; GI50 [23]: 110 nM; GI50 [24]: 280 nM; GI50 [25]: 260 nM; GI50 [26]: 250 nM; GI50 [27]: 260 nM; GI50 [28]: 190 nM; GI50 [29]: 490 nM; GI50 [30]: 360 nM; GI50 ([31]; Homo sapiens, Melanoma M14): 20 nM; increase in activity over STLC ([31]; melanoma cell line M14, GI50): 20 fold; increase in activity over monastrol ([31]; melanoma cell line M14, GI50): 1200 fold; GI50 [32]: 240 nM; GI50 [33]: 620 nM; GI50 [34]: 60 nM; GI50 [35]: 540 nM; GI50 [36]: 250 nM; GI50 [37]: 260 nM; GI50 [38]: 200 nM; GI50 [39]: 1620 nM; GI50 [40]: 390 nM; GI50 [41]: 420 nM; GI50 [42]: 80 nM; GI50 [43]: 440 nM; GI50 [44]: 490 nM; GI50 [45]: 450 nM; GI50 [46]: 320 nM; GI50 [47]: 460 nM; GI50 [48]: 1100 nM
